# Assay results as given in US9387246B2, “Treatment methods for rheumatoid arthritis” (priority 2013, dated 2016).
# B1: Certolizumab pegol (antibody, chains of the INN, looked up, V domains shown)
# VH: EVQLVESGGGLVQPGGSLRLSCAASGYVFTDYGMNWVRQAPGKGLEWMGWINTYIGEPIYADSVKGRFTFSLDTSKSTAYLQMNSLRAEDTAVYYCARGYRSYAMDYWGQGTLVTVSS
# VL: DIQMTQSPSSLSASVGDRVTITCKASQNVGTNVAWYQQKPGKAPKALIYSASFLYSGVPYRFSGSGSGTDFTLTISSLQPEDFATYYCQQYNIYPLTFGQGTKVEIK
# modifications: Fab' PEG
# B2: TNF (CIMZIA) (antibody, chains of the INN, looked up, V domains shown)
# VH: B1 VH
# VL: B1 VL
# modifications: Fab' PEG
# What was measured:
# IL-6 = conditions: literature 1990-2012, ACR abstracts 2006-2013; cited from earlier work
# VEGF-A = conditions: literature 1990-2012, ACR abstracts 2006-2013; cited from earlier work
# YKL-40 = conditions: literature 1990-2012, ACR abstracts 2006-2013; cited from earlier work
# TNFR1 = system: TNFR1; set-up: key: Y: biomarkers that are known to be positively affected by a treatment method (i.e., biomarkers that are known to have a favorable response to a treatment method); N: biomarkers that are not known to be positively affected by a treatment method (i.e., biomarkers that are known to have an unfavorable response to a treatment method); biomarkers that are known to be positively affected by a ORENCIA, the brand name of Atabacept; conditions: literature 1990-2012, ACR abstracts 2006-2013; cited from earlier work
# Resistin = conditions: literature 1990-2012, ACR abstracts 2006-2013; cited from earlier work
# SAA = conditions: literature 1990-2012, ACR abstracts 2006-2013; cited from earlier work
# MMP-3 = conditions: literature 1990-2012, ACR abstracts 2006-2013; cited from earlier work
# Leptin = conditions: literature; Leptin usable as biomarker only in patients with 15% or less body fat; cited from earlier work
# CRP = conditions: literature 1990-2012, ACR abstracts 2006-2013; cited from earlier work
# [1] = system: Rheumatoid arthritis patients; type: in vivo, human; conditions: for Treatment effectiveness (reason for discontinuation / earlier trial): patient 16, January 2014
# Text: A treatment method administered to a patient may be a combination of one or more treatment methods.
# MMP-1 = conditions: literature 1990-2012, ACR abstracts 2006-2013; cited from earlier work
# VCAM-1 = conditions: literature 1990-2012, ACR abstracts 2006-2013; cited from earlier work
# [2] = system: Rheumatoid arthritis patients; assay: VECTRA DA test: serum levels of biomarkers, % elevation over control (InFoRM study); type: in vivo, human
# Text: (§1) VECTRA® DA test is a multi-biomarker disease activity (MBDA) blood test sold by Crescendo Bioscience. The test provides a quantitative assessment of rheumatoid arthritis disease activity in patients by using twelve protein biomarkers—Vascular Cell Adhesion Molecule 1 (VCAM-1), Epidermal Growth Factor (EGF), Vascular Endothelial Growth Factor A (VEGF-A), Interleukin-6 (IL-6), Tumor Necrosis Factor Receptor Type 1 (TNFR1), Matrix Metalloproteinase-1 (MMP-1), Matrix Metalloproteinase-3 (MMP-3), YKL-40, Leptin, Resistin, Serum Amyloid A (SAA), and C-Reactive Protein (CRP). The twelve biomarkers in VECTRA® DA test are relevant to key aspects of the pathophysiology of RA. Li et al., Curr. Med. Res. & Opin. 29(1): 85-92 (2013). The test measures the concentrations of the biomarkers and provides the concentrations and percentile (RA percentile) value for each biomarker.
# The VECTRA DA MBDA test uses Meso Scale Discovery (MSD, Gaithersburg, Md., USA) sandwich immunoassay electrochemiluminescent technology to measure biomarker levels. Eastman et al., J. of Pharmaceutical and Biomedical Analysis 70: 415-424 (2012). In the immunoassay, capture antibodies are spotted on carbon electrodes in a planar array and detection antibodies are labeled with an electrochemiluminescent ruthenium reporter. Id. Upon electrical stimulation, light is produced from reporter molecules bound to the electrode to determine biomarker concentration.
# [3] = system: Rheumatoid arthritis patients; assay: Treatment outcome (effectiveness, clinical course) of treatment methods (Example 2); type: in vivo, human
# Protocol: (§2) The patients were treated with the selected treatment methods for at least five months and the post-treatment biomarker levels and VECTRA DA Score were determined by VECTRA® DA test along with CRP level and ESR. The change is VECTRA DA Score, CRP level and ESR was determined to determine the change in disease activity and effectiveness of the selected treatment method.
# [4] = system: Rheumatoid arthritis patients; assay: Change in VECTRA DA Score after treatment, longer duration (Example 3); type: in vivo, human
# Protocol: Sixteen rheumatoid arthritis patients were selected for treatment by treatment methods that were selected using the algorithm disclosed herein. Some patients were the same as the patients discussed under Example 2. Example 3, however, tracks patients' responses to treatment for a longer duration and uses VECTRA DA Score to determine effectiveness of the treatment.
# VECTRA® DA test was conducted for each patient to determine serum levels of the all the biomarkers and VECTRA DA Score in each patient before treatment. The collection of patients closely resembles the random patient population available nationwide as shown by a comparison of the distribution of VECTRA DA Scores in FIG. 6, as noted under Example 2.
# The patients were treated with the selected treatment methods and the post-treatment biomarker levels and VECTRA DA Score were determined by VECTRA® DA test. The change is VECTRA DA Score was determined to determine the change in disease activity and effectiveness of the selected treatment method.
# The treatment method (one method or a combination of methods) was determined to be effective when the post-treatment disease activity was lower than the pre-treatment disease activity in the patient: when VECTRA DA Score was lower than the pre-treatment VECTRA DA Score. Specifically, the treatment method was determined to be effective when the post-treatment disease activity was at least 20% lower than the pre-treatment disease activity, or when the VECTRA DA Score is decreased to a lower disease activity level after the treatment (i.e., from high to moderate, or high to low, or moderate to low).
# [5] = system: Rheumatoid arthritis patients; assay: Change in VECTRA DA Score after treatment (Example 2); type: in vivo, human; conditions: Patient 10; treatment December 2012-June 2013; score May 2013
# Text: as §1, with “biomarker. […]” for “biomarker.”
# as §2
# [6] = Patient 10, MTX (November 2011) and ORENCIA (August-December 2012) not algorithm-selected, HUMIRA December 2012-June 2013, based on VECTRA DA Score
# [7] = Patient 6, outcome not reflected by change in any of the three disease markers, earlier treatments not algorithm-selected
molecule,measurement,setting,value
"O=C(O)c1cc(/N=N/c2ccc(S(=O)(=O)Nc3ccccn3)cc2)ccc1O [S, Sulfasalazine]",IL-6 positively affected by treatment method,IL-6,Y
same,VEGF-A positively affected by treatment method,VEGF-A,Y
same,YKL-40 positively affected by treatment method,YKL-40,N
same,TNFR1 positively affected by treatment method,TNFR1,Y
same,Resistin positively affected by treatment method,Resistin,N
same,SAA positively affected by treatment method,SAA,Y
same,MMP-3 positively affected by treatment method,MMP-3,Y
same,Leptin positively affected by treatment method,Leptin,N
same,CRP positively affected by treatment method,CRP,Y
"C[C@@H]1CCN(C(=O)CC#N)C[C@@H]1N(C)c1ncnc2[nH]ccc12 [TOFAC, Tofacitinib]","Tapering of oral steroid, Prednisone","[1]; patient 16, XELJANZ 5 mg twice a day added March 2014",XELJANZ allowed
same,IL-6 positively affected by treatment method,IL-6,Y
same,MMP-1 positively affected by treatment method,MMP-1,Y
same,MMP-3 positively affected by treatment method,MMP-3,Y
"CN(Cc1cnc2nc(N)nc(N)c2n1)c1ccc(C(=O)N[C@@H](CCC(=O)O)C(=O)O)cc1 [MTX, Methotrexate]",Adverse event for which dose was reduced to 10 mg/week,"[1]; human, in vivo","hair loss, April 2014"
same,Treatment effectiveness (reason for discontinuation / earlier trial),[1],without success
same,IL-6 positively affected by treatment method,IL-6,Y
same,MMP-1 positively affected by treatment method,MMP-1,N
same,VEGF-A positively affected by treatment method,VEGF-A,Y
same,YKL-40 positively affected by treatment method,YKL-40,N
same,TNFR1 positively affected by treatment method,TNFR1,N
same,Resistin positively affected by treatment method,Resistin,N
same,SAA positively affected by treatment method,SAA,Y
same,MMP-3 positively affected by treatment method,MMP-3,Y
same,Leptin positively affected by treatment method,Leptin,N
same,VCAM-1 positively affected by treatment method,VCAM-1,N
same,CRP elevated level,"[2]; Patient 5, August 2012",67%
same,IL-6 elevated level,"[2]; Patient 5, August 2012",79%
same,Leptin elevated level,"[2]; Patient 5, August 2012",97%
same,MMP-1 elevated level,"[2]; Patient 5, August 2012",79%
same,MMP-3 elevated level,"[2]; Patient 5, August 2012",95%
same,Resistin elevated level,"[2]; Patient 5, August 2012",82%
same,SAA elevated level,"[2]; Patient 5, August 2012",92%
same,TNF-R1 elevated level,"[2]; Patient 5, August 2012",79%
same,VCAM-1 elevated level,"[2]; Patient 5, August 2012",97%
same,VEGF-A elevated level,"[2]; Patient 5, August 2012",48%
same,YKL-40 elevated level,"[2]; Patient 5, August 2012",94%
same,SAA elevated level,"[2]; Patient 10, April 2012",65%
same,VEGF-A elevated level,"[2]; Patient 10, April 2012",59%
same,YKL-40 elevated level,"[2]; Patient 10, April 2012",72%
same,CRP positively affected by treatment method,CRP,Y
same,Treatment Outcome,"[3]; Patient 5, MTX alone from March 2012 not algorithm-selected, MTX and CIMZIA October 2012-June 2013, based on Sedimentation Rate and CRP Level",Not effective
same,Treatment Outcome,"[3]; Patient 8, MTX not algorithm-selected, ORENCIA December 2012-June 2013, based on VECTRA DA score",Not effective
same,Treatment Outcome,"[3]; Patient 9, ACTEMRA from May 2012 not algorithm-selected, MTX added October 2012, based on ESR and CRP level","Effective,"
same,Treatment Outcome,[3]; [6],Not effective
same,Arthritis activity class of VECTRA DA Score,"[4]; Patient 5, August 2012",high (a VECTRA DA Score of >44 reflects high disease activity)
same,VECTRA DA Score increased by,"[4]; Patient 5, August 2012 since March 2012 (5 months treatment only)",by 7 since
same,Arthritis activity class of VECTRA DA Score,"[4]; Patient 10, April 2012",(moderate) (a VECTRA DA Score of >29 and ≦44 reflects moderate disease activity)
same,VECTRA DA Score,"[4]; Patient 10, April 2012, Methotrexate 10 mg/week",Score: 33
Rituximab,IL-6 positively affected by treatment method,IL-6,Y
same,MMP-1 positively affected by treatment method,MMP-1,N
same,YKL-40 positively affected by treatment method,YKL-40,N
same,Resistin positively affected by treatment method,Resistin,N
same,SAA positively affected by treatment method,SAA,N
same,MMP-3 positively affected by treatment method,MMP-3,N
same,Leptin positively affected by treatment method,Leptin,N
same,VCAM-1 positively affected by treatment method,VCAM-1,N
same,CRP positively affected by treatment method,CRP,Y
"CCN(CCO)CCCC(C)Nc1ccnc2cc(Cl)ccc12 (centres unmarked) [P, Hydroxychloroquine]",IL-6 positively affected by treatment method,IL-6,Y
same,MMP-1 positively affected by treatment method,MMP-1,N
same,VEGF-A positively affected by treatment method,VEGF-A,N
same,YKL-40 positively affected by treatment method,YKL-40,N
same,TNFR1 positively affected by treatment method,TNFR1,N
same,Resistin positively affected by treatment method,Resistin,N
same,SAA positively affected by treatment method,SAA,Y
same,MMP-3 positively affected by treatment method,MMP-3,N
same,VCAM-1 positively affected by treatment method,VCAM-1,N
same,CRP positively affected by treatment method,CRP,Y
"Cc1oncc1C(=O)Nc1ccc(C(F)(F)F)cc1 [ARA, Leflunomide]",Patient could tolerate the drug in the past,[1]; in vivo,Patient could not
same,Toxicity for which the treatment was discontinued,[1]; in vivo,to bone marrow
same,WBC count relative to normal (reason for discontinuation),[1]; in vivo,due to below
same,IL-6 positively affected by treatment method,IL-6,Y
same,MMP-1 positively affected by treatment method,MMP-1,Y
same,TNFR1 positively affected by treatment method,TNFR1,Y
same,Resistin positively affected by treatment method,Resistin,N
same,SAA positively affected by treatment method,SAA,Y
same,MMP-3 positively affected by treatment method,MMP-3,Y
same,VCAM-1 positively affected by treatment method,VCAM-1,Y
same,CRP elevated level,"[2]; Patient 6, March 2012",93%
same,IL-6 elevated level,"[2]; Patient 6, March 2012",98%
same,Leptin elevated level,"[2]; Patient 6, March 2012",90%
same,MMP-1 elevated level,"[2]; Patient 6, March 2012",40%
same,MMP-3 elevated level,"[2]; Patient 6, March 2012",91%
same,Resistin elevated level,"[2]; Patient 6, March 2012",63%
same,SAA elevated level,"[2]; Patient 6, March 2012",97%
same,TNF-R1 elevated level,"[2]; Patient 6, March 2012",73%
same,VCAM-1 elevated level,"[2]; Patient 6, March 2012",85%
same,VEGF-A elevated level,"[2]; Patient 6, March 2012",84%
same,YKL-40 elevated level,"[2]; Patient 6, March 2012",41%
same,Treatment Outcome,[3]; [7],(after failing
same,Arthritis activity class of VECTRA DA Score,"[4]; Patient 6, March 2012",high (a VECTRA DA Score of >44 reflects high disease activity)
same,VECTRA DA Score,"[4]; Patient 6, March 2012",74
"Cn1cnc([N+](=O)[O-])c1Sc1ncnc2nc[nH]c12 [Azathioprine (AZA), Azathioprine]",Treatment effectiveness (reason for discontinuation / earlier trial),[1],to inefficacy
same,Treatment Outcome,[3]; [7],(after failing
same,Treatment Outcome,"[3]; Patient 16, AZA from March 2012, triple therapy with CIMZIA from May 2012, based on VECTRA DA score",Not effective
Adalimumab [HUMIRA (TNF)],VECTRA DA Score - Decreased by,[5],Decreased by 22
same,Treatment Outcome,[3]; [6],"Effective,"
B1,Treatment Outcome,[3]; [7],(after failing
B2,Treatment effectiveness (reason for discontinuation / earlier trial),[1],without success
